We go through 1 compound from US5703118A, “Use of benzopyran derivatives for the treatment of pathologies associated with the NA^+ -independent CI-/HCO3 -exchanger” (Adir et Compagnie, priority 1995, dated 1997).

Where two headings read alike, the source gives them in different places.

Experiment [1] deals with Na^+ -independent Cl^- /HCO3^- exchanger. Description: Activity of the Na^+ -independent Cl^- /HCO3^- exchanger in ventricular cardiomyocytes isolated from rat heart (acetate method, carboxy-SNARF-1 intracellular pH). The format is cell-based. How it is done:
Example A: MEASUREMENT OF THE ACTIVITY OF THE Na^+ -INDEPENDENT Cl^- /HCO3^- EXCHANGER IN VENTRICULAR CARDIOMYOCYTES ISOLATED FROM RAT HEART
The study is performed on ventricular cardiomyocytes isolated from rat heart by enzymatic dissociation. The intracellular pH of a single cell is measured by the fluorescent label carboxy-SNARF-1 whose fluorescence depends on its state of protonation (Buckler K. J. et al. Pflugers Archiv, 1990, 417: 234-239). The cells are "charged" beforehand with SNARF-1-AM (esterified and permeating form of the label) and the intracellular fluorescence of SNARF is monitored using an inverted microscope equipped with epifluorescence. The measurements are converted into pH using a calibration file.
The activity of the Na^+ -independent Cl^- /HCO3^- exchanger is studied after activation by induction of an alkaline charge of the cells by the acetate method (Roos A et al. Physiol. Rev., 1981, 61: 296-434). […]
The compounds according to the invention are used at concentrations of 10^-11 to 10^-5 M and their IC50 (50% inhibitory concentration) is calculated for each ion transporter. In parallel, the effects of the molecules on the intracellular intrinsic buffer power and the intracellular resting pH are determined.

Experiment [2] has as its system isolated rat hearts. Description: Cardiovascular study: arrhythmias in isolated rat hearts (Langendorff infusion), ischaemia-reinfusion. The following applies: for inhibition at 0.1 µM: Rattus norvegicus, n=6, preliminary. How it is done: Example F: CARDIOVASCULAR STUDY
The compounds are tested at a concentration of 0.1 μM in a solution of DMSO in Krebs buffer (0.01% v/v) on arrhythmias. 6 isolated rat hearts were used for the test compound and 6 for the control. An infusion by the Langendorff method is performed (Rees S. A. and Curtis M.J.J. Card. Pharmacol. 1995, 26: 280-288).

Turning to `Cc1cc(C)c(NC(=O)C2(C)CCc3c(C)c(O)c(C)c(C)c3O2)cc1C` (centres unmarked) [Example 14, N-(2,4,5-trimethylphenyl)-(6-hydroxy-3,4-dihydro-2,5,7,8-tetramethyl-2H[1]-benzopyran-2-yl)carboxamide], the “selectivity of inhibition of the Na^+ -independent Cl^- /HCO3^- exchanger” value in experiment [1] (Na^+ /H^+ exchange and Na^+ /HCO3^- cotransport also studied (ammonium method)) was “selective inhibitor”. In addition, in experiment [1] (activation by alkaline charge (acetate method), 10^-11 to 10^-5 M, read-out: IC50 (50% inhibitory concentration), Na^+ -independent Cl^- /HCO3^- exchanger), the IC50 is about 0.1 nM. The “activity on the cardiovascular system” value in experiment [2] (0.1 μM, isolated rat heart) is listed as “possesses cardioprotective activity”. Further, the inhibition at 0.1 µM was 50% in experiment [2] (in comparison with control hearts, read-out: reduction of the incidence of ventricular fibrillation observed during the ischaemia) and 50% in experiment [2] (read-out: reduction of the incidence of ventricular fibrillation observed during reinfusion).
